How the values were obtained:
25 mer A-T-DNA [1] = experiment: TM measurement by RT-PCR (HRM/SYBR green), A-T DNA; format: binding; settings: for shift in TM of A-T DNA: (d/dT) fluorescence (465-510), compared to the control without addition; for TM of 25 mer A-T-DNA in the treated well: control wells 56.1-57.1° C.
Description: (§1) The primers listed in Table 4 were purchased from Sigma Aldrich (Israel). Primers number 1 and 3 are complementary and annealed to form CG/GC double-stranded DNA fragment, and primers number 5 and 7 are complementary and annealed to form AT double-stranded DNA fragment. The DNA complementary oligomers were hybridized in a medium salt buffer containing 10 mM NaCl, 10 mM sodium phosphate and 0.1 mM EDTA, pH 7.0. The samples were heated to 90° C. for 5 min, slowly cooled to 20° C. and left at 4° (1 until used for TM measurements with RT-PCR.
(§2) According to this method, 5 μl of a selected double-stranded DNA is incubated with a 5 μl solution of a selected compound at RT for 5 min; 10 μl HRM/SYB (high resolution melting/syber green I) (X2) are then added; and the TM is then measured. The run program for TM measurement is as following: keep temperature of final solution at 25° C. for 5 min, raise temperature up to 99° C. with a rate of 0.1° C./sec, and then cool to 37° C.
(§3) In a further study, the effect of AH-11 as well as three additional similar compounds having the same heterocyclic (pyridine) core on the TM of DNA double-stranded sequences consisting of A-T or C-G base pairs only was tested by RT-PCR as described in Materials and Methods. The additional compounds tested are 4-amino-N-(6-aminopyridin-2-yl)butanamide, N,N′-(pyridine-2,6-diyl)bis(3-aminopropanamide), and N,N′-(pyridine-2,6-diyl)bis(4-aminobutanamide), herein identified […] and AH-14, respectively (chemical structures are shown in Scheme 5). […] Compounds AH-11, AH-12 and AH-13 increased the TM of 25 mer A-T-DNA by 4.2° C., 5.7° C. and 9.9° C., respectively. In all four cases, no effect was observed on the TM of 25 mer C-G-DNA (the TM shift range between 0.3 and 0.8° C.).
(§4) In this study, the ability of monomer units M1-6a, designed to be specific for A-T base pairs only, and M4-4a, designed to be specific for C-G base pairs only, to effectively and selectively bind to DNA double-stranded sequences consisting of A-T or C-G base pairs only was tested using the RT-PCR method as described in Material and Methods. Nevertheless, in order to neutralize a possible influence of the carboxylic groups of these monomers on the specificity and selectivity of the monomers, the compounds practically used were 3-(2-amino-9-(2-((2-(tert-butoxycarbonylamino)ethyl)(2-ethoxy-2-oxoethyl)amino)-2-oxoethyl)-9H-purin-6-ylamino)-N,N,N-trimethylpropan-1-aminium and 3-(9-(2-((2-(tert-butoxycarbonylamino)ethyl)(2-ethoxy-2-oxoethyl)amino)-2-oxoethyl)-2-oxo-2,9-dihydro-1H-purin-6-ylamino)-N,N,N-trimethylpropan-1-aminium, which are analogs of these monomer units M1-6a and M4-4a, respectively, in which the carboxyl groups are protected with ethyl (see Scheme 10 and 17).

25 mer C-G-DNA [2] = experiment: TM measurement by RT-PCR (HRM/SYBR green), C-G DNA; format: binding; settings: for shift in TM of C-G DNA: (d/dT) fluorescence (465-510), compared to the control without addition; for TM of 25 mer C-G-DNA in the treated well: control wells 84.3-86° C.
Description: as §1, §2, §3, §4
The biological activity of the polymers synthesized, i.e., their ability to specifically interact with specific fragments of double-stranded DNA, was tested using the RT-PCR method, as described in Materials and Methods.

[3] = tested on: restriction enzyme (satI); experiment: Prevention of restriction enzyme digestion of a PCR product (agarose gel); format: biochemical; settings: for preventing restriction enzyme satI from digesting the DNA fragment: lanes 5+5B, 5+7B, 10+7B compared with cut 5 and cut 10 without AH-13
Description: This can be seen by comparing lanes “5+5B”, “5+7B” and “[…]” with “cut 5” and “cut 10”, wherein no AH-13 was used.

25 mer C-G-DNA [4] = experiment: TM of treated duplex DNA by UV spectra at 260 nm, C-G DNA; format: binding; settings: UV 260 nm; incubated at 37° C. for 36 hours
Description: (§5) Duplex DNA (dsDNA-1,2) sequences are formed by incubating a solution of single-strand DNA-1 and single-strand DNA-2 (1:1) at 90° C. for 5 min, and slowly cooling down to RT for 1-2 hours. Treated Duplex DNA (dsDNA-1,2 bonded to a triplex forming molecule of the invention) is formed by incubating a solution of triplex forming molecule (TFM) of the invention and dsDNA-1,2 (1:1) at 37° C. for 36 hours.
(§6) The melting temperature (TM), i.e., the temperature at which a DNA double helix dissociates into single strands, measurements of Duplex DNA or Treated Duplex DNA are carried out using quartz cuvettes with an optical path length of 1 cm on a Cray 300 UV/vis spectrophotometer interfaced with a computer for data collection and analysis. The temperature is increased from 30° C. to 98° C. at the rate of 1° C./min, and the TM is determined by plotting the first derivative of the absorbance at 260 nm vs. temperature profile. TM is defined as the temperature at which half the molecules are single-stranded.
(§7) In order to test the effect of AH-11, designed to be specific for A-T base pair, on the TM of DNA double-stranded sequences consisting of A-T or C-G base pairs only, two solutions each containing one of the aforesaid sequences were incubated with a solution containing the compound AH-11 at 37° C. for 36 hours, and treated double-stranded DNA were formed. […]

25 mer A-T-DNA [5] = experiment: TM of treated duplex DNA by UV spectra at 260 nm, A-T DNA; format: binding; settings: UV 260 nm; incubated at 37° C. for 36 hours; TM without compound 53° C.
Description: as §5, §6, §7

25 mer A-T-DNA [6] = experiment: TM measurement by RT-PCR (HRM/SYBR green), A-T DNA; format: binding; settings: incubation time from 5 min to 60 or 100 min

NCCCC(=O)Nc1cccc(NC(=O)CCCN)n1 [AH-14, N,N′-(pyridine-2,6-diyl)bis(4-aminobutanamide)] was tested, and the “effect on the TM of 25 mer A-T-DNA” value (25 mer A-T-DNA [1]) was “most effective compound”, the “shift in TM of A-T DNA” value (25 mer A-T-DNA [1]) was 11.7 °C and the “shift in TM of C-G DNA” value (25 mer C-G-DNA [2]) was 0.8 °C.

With “3-(2-amino-9-(2-((2-(tert-butoxycarbonylamino)ethyl)(2-ethoxy-2-oxoethyl)amino)-2-oxoethyl)-9H-purin-6-ylamino)-N,N,N-trimethylpropan-1-aminium [analog of M1-6a]” the “shift in TM of A-T DNA” value (25 mer A-T-DNA [1]) was 6.9 °C, the “TM of 25 mer A-T-DNA in the treated well” value (25 mer A-T-DNA [1]) was 63 °C and the “effect on the TM of 25 mer C-G-DNA” value (25 mer C-G-DNA [2]) was “did not affect”. For the same molecule, the “shift in TM of C-G DNA” value (25 mer C-G-DNA [2]) was under 1.0 °C.

In the case of NCCC(=O)Nc1cccc(NC(=O)CCN)n1 [AH-13, N,N′-(pyridine-2,6-diyl)bis(3-aminopropanamide)], the “interference with satI enzyme activity in lane 10+5B” value ([3]; 10 μl PCR product + 5 μl AH-13, both cut and uncut DNA present) is reported as “not sufficient to completely interfere with the enzyme activity”, the “preventing restriction enzyme satI from digesting the DNA fragment” value [3] is reported as “capable in a concentration dependent manner of preventing a restriction enzyme (satI)” and the “preventing restriction enzyme satI from digesting the DNA fragment” value ([3]; listed as AH-1) is reported as “capable of specifically interfering with the activity of the restriction enzyme satI, in a concentration dependent manner”. The “shift in TM of A-T DNA” value (25 mer A-T-DNA [1]) was 9.9 °C.

With NCCCC(=O)Nc1cccc(N)n1 [AH-12, 4-amino-N-(6-aminopyridin-2-yl)butanamide] the “shift in TM of A-T DNA” value (25 mer A-T-DNA [1]) was 5.7 °C.

NCCC(=O)Nc1cccc(N)n1 [AH-11, 3-amino-N-(6-aminopyridin-2-yl)propanamide] was tested, and the “shift in TM of A-T DNA” value (25 mer A-T-DNA [1]) was 4.2 °C, the “effect on the TM of 25 mer C-G-DNA” value (25 mer C-G-DNA [4]) was “did not affect at all” and the “TM of 25 mer A-T-DNA after treatment” value (25 mer A-T-DNA [5]) was 85 °C.

With “3-(9-(2-((2-(tert-butoxycarbonylamino)ethyl)(2-ethoxy-2-oxoethyl)amino)-2-oxoethyl)-2-oxo-2,9-dihydro-1H-purin-6-ylamino)-N,N,N-trimethylpropan-1-aminium [analog of M4-4a]” the “effect on the TM of 25 mer A-T-DNA” value (25 mer A-T-DNA [1]) was “did not affect”, the “shift in TM of A-T DNA” value (25 mer A-T-DNA [1]) was 0.3 °C and the “shift in TM of C-G DNA” value (25 mer C-G-DNA [2]) was 5.6 °C. The “TM of 25 mer C-G-DNA in the treated well” value (25 mer C-G-DNA [2]) was 90.1 °C.

For CC(C)(C)OC(=O)NCCN(CC(=O)O)C(=O)Cn1cnc2c(NCCC[N+](C)(C)C)nc(N)nc21 [M1-6a, 3-(2-amino-9-(2-((2-(tert-butoxycarbonylamino)ethyl)(carboxymethyl)amino)-2-oxoethyl)-9H-purin-6-ylamino)-N,N,N-trimethylpropan-1-aminium], the “TM of treated 25 mer A-T-DNA upon increasing the incubation time” value (25 mer A-T-DNA [6]) was “No difference”, the “TM of 25 mer A-T-DNA in the treated well” value (25 mer A-T-DNA [1]) was 63 °C and the “effect on the TM of 25 mer C-G-DNA” value (25 mer C-G-DNA [2]) was “did not affect at all”. For the same molecule, the “TM of 25 mer C-G-DNA in the treated well” value (25 mer C-G-DNA [2]) was 85.1 °C.

For CC(C)(C)OC(=O)NCCN(CC(=O)O)C(=O)Cn1cnc2c(NCCC[N+](C)(C)C)[nH]c(=O)nc21 [M4-4a, 3-(9-(2-((2-(tert-butoxycarbonylamino)ethyl)(carboxymethyl)amino)-2-oxoethyl)-2-oxo-2,9-dihydro-1H-purin-6-ylamino)-N,N,N-trimethylpropan-1-aminium], the “effect on the TM of 25 mer A-T-DNA” value (25 mer A-T-DNA [1]) was “did not affect at all”, the “TM of 25 mer A-T-DNA in the treated well” value (25 mer A-T-DNA [1]) was 57.4 °C and the “TM of 25 mer C-G-DNA in the treated well” value (25 mer C-G-DNA [2]) was 90.1 °C.

Reference: patent US20130231480A1, “SEQUENCE SPECIFIC DOUBLE-STRANDED DNA/RNA BINDING COMPOUNDS AND USES THEREOF” (GENEARREST LTD, priority 2010, published 2013)
